The record followed here is patent US8183263B2 (priority 2007, dated 2012).

The assay concerns HCV replicon. Nature of the assay: HCV replicon replication assay (NPT level by captured ELISA). The format is cell-based. Conditions: Hepatitis C virus, 72 h; Huh-7 HCV replicon-containing cells, three days incubation; read-out: Activity (inhibition of HCV replicon replication). The protocol: Compounds claimed herein are tested for the ability to inhibit viral replication of the Hepatitis C replicon in cultured cells in which the HCV replicon construct has been incorporated. The HCV replicon system was described by Bartenschlager, et. al (Science, 285, pp. 110-113 (1999)). The replicon system is predictive of in vivo anti-HCV activity; compounds that are active in humans uniformly evidence activity in the replicon assay.
In this assay HCV replicon containing cells are treated with different concentrations of the test compound to ascertain the ability of the test compound to suppress replication of the HCV replicon. As a positive control, HCV replicon-containing cells are treated with different concentrations of interferon alpha, a known inhibitor of HCV replication. The replicon assay system includes Neomycin Phosphotransferase (NPT) as a component of the replicon itself in order to detect the transcription of replicon gene products in the host cell. Cells in which the HCV replicon is actively replicating have high levels of NPT; the level of NPT is proportional to HCV replication. […] The NPT level of each sample is measured using a captured ELISA.
A protocol for testing compounds for the ability to inhibit viral replication of the Hepatitis C replicon cultured cells in which the replicon construct has been incorporated, follows.
The HCV replicon contains, 5′-3′, the HCV-IRES, the neomycin phosphotransferase (neo) gene, the IRES of encephalomyocarditis virus, which directs translation of HCV sequences NS3 to NS5B, and the 3′-NTR. The sequence of the HCV replicon has been deposited in GenBank (Accession no. AJ242652).
The replicon is transfected into Huh-7 cells using standard methods such as electroporation.
The equipment and materials include, but are not limited to, Huh-7 HCV replicon-containing cells, maintenance media (DMEM (Dulbecco's modified Eagle media) supplemented with 10% FBS, L-glutamine, non-essential amino acids, penicillin (100 units/ml), streptomycin (100 micrograms/ml), and 500 micrograms/ml of Geneticin (G418), screening media (DMEM supplemented with 10% FBS, L-glutamine, non-essential amino acids, penicillin (100 units/ml) and streptomycin (100 micrograms/ml)), 96 well tissue culture plates (flat bottom), 96 well plates (U bottom for drug dilution), Interferon alpha for positive control, fixation reagent (such as methanol: acetone), primary antibody (rabbit anti-NPTII), secondary antibody: Eu—N1 1, and enhancement solution.
HCV replicon-containing cells are rinsed with once PBS once; 2 mls of trypsin are then added. Cells are incubated at 37° C. in a 5% CO2 incubator for 3-5 minutes. 10 mls of complete medium is added to stop the reaction. Cells are blown gently, put into a 15 ml tube, and spun at 1200 rpm for four minutes. The trypsin/medium solution is removed and 5 mls of medium (500 ml DMEM (high glucose)) from BRL catalog #12430-054; 50 mls 10% FBS, 5% Geneticin G418 (50 mg/ml, BRL catalog #10131-035), 5 ml MEM non-essential amino acids (100×BRL #11140-050) and 5 ml pen-strep (BRL #15140-148) is added. The cells and media are mixed carefully
Cells are plated with screening medium (500 ml DMEM (BRL #21063-029), 50 ml FBS (BRL #10082-147) and 5 ml MEM non-essential amino acid (BRL #11140-050) at 6000-7500 cells/100 μl/well of 96 well plate (6-7.5×10^5 cells/10 ml/plate). Plates are placed into 37° C. 5% CO2 incubator overnight.
The following morning, drugs (test compounds or interferon alpha) are diluted in 96 well U bottom plates with media or DMSO/media, depending on the final concentration chosen for screening. Generally for 6 concentrations of each test compounds ranging from 10 micromolar to 0.03 micromolar are applied. 100 μl of the test compound dilution is placed in wells of the 96 well plate containing the HCV replicon cells. Media without drug is added to some wells as a negative controls. DMSO is known to affect cell growth. […]
As to `CC(F)(F)c1cc(Nc2nc(-c3cccnc3)c(F)s2)ccc1Oc1ccccc1` [Cmp 82, N-(3-(1,1-difluoroethyl)-4-phenoxyphenyl)-5-fluoro-4-(pyridin-3-yl)thiazol-2-amine], the EC50 was < 1000 nM.
With `CC(=O)c1cc(Nc2nc(-c3cccnc3)cs2)ccc1Oc1ccc(Cl)cc1` [Cmp 84, 1-(2-(4-chlorophenoxy)-5-(4-(pyridin-3-yl)thiazol-2-ylamino)phenyl)ethanone], the EC50 was < 1000 nM.
The same measure for `CC(=O)c1cc(Nc2nc(-c3cccnc3)cs2)ccc1Oc1ccccc1` [Cmp 85, 1-(2-phenoxy-5-(4-(pyridin-3-yl)thiazol-2-ylamino)phenyl)ethanone]: < 1000 nM; for `COc1ncc(-c2csc(Nc3ccc(Oc4ccccc4)c(C(C)=O)c3)n2)cn1` [Cmp 86, 1-(5-(4-(2-methoxypyrimidin-5-yl)thiazol-2-ylamino)-2-phenoxyphenyl)ethanone]: < 1000 nM; for `CCc1ccc(Oc2ccc(Nc3nc(-c4cnc(OC)nc4)cs3)cc2C(C)=O)cc1` [Cmp 87, 1-(2-(4-ethylphenoxy)-5-(4-(2-methoxypyrimidin-5-yl)thiazol-2-ylamino)phenyl)ethanone]: < 1000 nM.
With `CCCCCCCCOc1cc(Nc2nc(-c3cnc(OC)nc3)c(F)s2)ccc1C(F)(F)F` [Cmp 88, 5-fluoro-4-(2-methoxypyrimidin-5-yl)-N-(3-(octyloxy)-4-(trifluoromethyl)phenyl)thiazol-2-amine], the EC50 is < 1000 nM.
The same measure for `CN(C)c1ccc(CCCCOc2ccc(Nc3nc(-c4cccnc4)cs3)cc2C(F)(F)F)cc1` [Cmp 89, N-(4-(4-(4-(dimethylamino)phenyl)butoxy)-3-(trifluoromethyl)phenyl)-4-(pyridin-3-yl)thiazol-2-amine]: < 1000 nM.
To `Fc1sc(Nc2ccc(OCCCCc3cccs3)c(C(F)(F)F)c2)nc1-c1cccnc1` [Cmp 90, 5-fluoro-4-(pyridin-3-yl)-N-(4-(4-(thiophen-2-yl)butoxy)-3-(trifluoromethyl)phenyl)thiazol-2-amine] belongs < 1000 nM; to `Cc1cccc(OCCCc2ccc(Nc3nc(-c4cccnc4)cs3)cc2C(F)(F)F)c1` [Cmp 91, 4-(pyridin-3-yl)-N-(4-(3-(m-tolyloxy)propyl)-3-(trifluoromethyl)phenyl)thiazol-2-amine], < 1000 nM.
The same measure for `Cc1cccc(OCCCc2ccc(Nc3nc(-c4cccnc4)c(F)s3)cc2C(F)(F)F)c1` [Cmp 92, 5-fluoro-4-(pyridin-3-yl)-N-(4-(3-(m-tolyloxy)propyl)-3-(trifluoromethyl)phenyl)thiazol-2-amine]: < 1000 nM; for `CCCCCCCc1nc2cc(Nc3nc(-c4cccnc4)c(F)s3)ccc2o1` [Cmp 93, N-(5-fluoro-4-(pyridin-3-yl)thiazol-2-yl)-2-heptylbenzo[d]oxazol-5-amine]: < 1000 nM; for `CCCCCCCCc1c(F)cc(Nc2nc(-c3cccnc3)cs2)cc1F` [Cmp 94, N-(3,5-difluoro-4-octylphenyl)-4-(pyridin-3-yl)thiazol-2-amine]: < 1000 nM.
As for `COc1ncc(-c2nc(Nc3ccc(Oc4ccccc4)c(C(F)(F)F)c3)sc2F)cn1` [Cmp 95, 5-fluoro-4-(2-methoxypyrimidin-5-yl)-N-(4-phenoxy-3-(trifluoromethyl)phenyl)thiazol-2-amine], the EC50 lay within 1000 to 10000 nM.
The same measure for `COc1ncc(-c2nc(Nc3ccc(Oc4ccc(C#N)cc4)c(C(F)(F)F)c3)sc2F)cn1` [Cmp 96, 4-(4-(5-fluoro-4-(2-methoxypyrimidin-5-yl)thiazol-2-ylamino)-2-(trifluoromethyl)phenoxy)benzonitrile]: < 1000 nM.
As to `Fc1sc(Nc2ccc(Oc3ccc(Cl)cc3)c(C(F)(F)F)c2)nc1-c1cccnc1` [Cmp 97, N-(4-(4-chlorophenoxy)-3-(trifluoromethyl)phenyl)-5-fluoro-4-(pyridin-3-yl)thiazol-2-amine], the EC50 is < 1000 nM.
`CCc1ccc(Oc2ccc(Nc3nc(-c4cccnc4)c(F)s3)cc2C(F)(F)F)cc1` [Cmp 98, N-(4-(4-ethylphenoxy)-3-(trifluoromethyl)phenyl)-5-fluoro-4-(pyridin-3-yl)thiazol-2-amine]: the EC50 was < 1000 nM.
The same measure for `N#Cc1ccc(Oc2ccc(Nc3nc(-c4cccnc4)c(F)s3)cc2C(F)(F)F)cc1` [Cmp 99, 4-(4-(5-fluoro-4-(pyridin-3-yl)thiazol-2-ylamino)-2-(trifluoromethyl)phenoxy)benzonitrile]: < 1000 nM.
To `CCCCCCCCc1ccc(Nc2nc(-c3ccc(O)nc3)cs2)cc1C(F)(F)F` [Cmp 100, 5-(2-(4-octyl-3-(trifluoromethyl)phenylamino)thiazol-4-yl)pyridin-2-ol] belongs < 1000 nM; to `CCCCCCCCc1ccc(Nc2nc(-c3ccc(O)nc3)c(F)s2)cc1C(F)(F)F` [Cmp 101, 5-(5-fluoro-2-(4-octyl-3-(trifluoromethyl)phenylamino)thiazol-4-yl)pyridin-2-ol], < 1000 nM; to `FC(F)(F)c1ccc(Nc2nc(-c3cccnc3)cs2)cc1Oc1ccccc1` [Cmp 102], 1000 to 10000 nM.
To `FC(F)(F)c1cc(Nc2nc(-c3cccnc3)cs2)ccc1CCCOc1ccc(Cl)cc1` [Cmp 103, N-(4-(3-(4-chlorophenoxy)propyl)-3-(trifluoromethyl)phenyl)-4-(pyridin-3-yl)thiazol-2-amine] belongs < 1000 nM; to `Fc1sc(Nc2ccc(CCCOc3ccc(Cl)cc3)c(C(F)(F)F)c2)nc1-c1cccnc1` [Cmp 104, N-(4-(3-(4-chlorophenoxy)propyl)-3-(trifluoromethyl)phenyl)-5-fluoro-4-(pyridin-3-yl)thiazol-2-amine], < 1000 nM.
With `CCCCCCc1ccc(Nc2nc(-c3cccnc3)cs2)cc1C(F)(F)F` [Cmp 105, N-(4-hexyl-3-(trifluoromethyl)phenyl)-4-(pyridin-3-yl)thiazol-2-amine], the EC50 is < 1000 nM.
The same measure for `CCCCCCCCc1cc2cc(Nc3nc(-c4cccnc4)cs3)ccc2o1` [Cmp 106, N-(2-octylbenzofuran-5-yl)-4-(pyridin-3-yl)thiazol-2-amine]: < 1000 nM.
With `Cc1ccc(CCCCOc2ccc(Nc3nc(-c4cccnc4)c(F)s3)cc2C(F)(F)F)cc1` [Cmp 107, 5-fluoro-4-(pyridin-3-yl)-N-(4-(4-p-tolylbutoxy)-3-(trifluoromethyl)phenyl)thiazol-2-amine], the EC50 is < 1000 nM.
On to `Fc1sc(Nc2ccc(C(F)(F)F)c(Oc3ccccc3)c2)nc1-c1cccnc1` [Cmp 108, 5-fluoro-N-(3-phenoxy-4-(trifluoromethyl)phenyl)-4-(pyridin-3-yl)thiazol-2-amine], for which the EC50 is < 1000 nM.
To `Cc1ccc(CCCCOc2ccc(Nc3nc(-c4cccnc4)c(Cl)s3)cc2C(F)(F)F)cc1` [Cmp 109, 5-chloro-4-(pyridin-3-yl)-N-(4-(4-p-tolylbutoxy)-3-(trifluoromethyl)phenyl)thiazol-2-amine] belongs < 1000 nM; to `CCCCCCCCOc1c(F)cc(Nc2nc(-c3cccnc3)cs2)cc1F` [Cmp 110, N-(3,5-difluoro-4-(octyloxy)phenyl)-4-(pyridin-3-yl)thiazol-2-amine], < 1000 nM; to `CCCCCCCC(=O)c1ccc(Nc2nc(-c3cccnc3)cs2)cc1` [Cmp 111, 1-(4-(4-(pyridin-3-yl)thiazol-2-ylamino)phenyl)octan-1-one], < 1000 nM.
To `CCCCCCc1ccc(Nc2nc(-c3cccnc3)c(F)s2)cc1C(F)(F)F` [Cmp 112] belongs < 1000 nM.
